Source: patent US6875451B2, “Compositions and methods for the treatment of primary and metastatic neoplastic diseases using arsenic compounds” (PolaRx Biopharmaceuticals Inc., priority 1997, dated 2005)

Assays:
Assay in all cases: SRB growth assay, 6 days exposure, non-small cell lung cancer
Assay type in all cases: cell-based
HOP-62 = settings: HOP-62, 6 days
Procedure: (§1) Arsenic trioxide (1 mg/ml, 10 mg/ampoule, manufactured by Taylor Pharmaceuticals, Decatur, Ill.) was tested at five concentrations each at 10-fold dilutions, i.e., 10^−5, 10^−6, 10^−7, 10^−8 and 10^−9 μg/ml.
(§2) The in vitro tests were performed by incubating the test cells in the presence of the indicated concentration of arsenic trioxide under standard culture conditions for a designated period of time, which is followed by a sulforhodamine B (SRB) protein assay to estimate cell viability or growth. The cell lines are organized into subpanels according to the origin of the cell lines, e.g., leukemia, breast cancer, etc. A description of the cell lines and method of testing is described in Monk et al. (1997, Anticancer Drug Des. 12:533-41) and Weinstein et al., (1997, Science 275:343-9), which are incorporated herein in their entirety.
(§3) The measurement of an effect is expressed in Percentage Growth (PG). The measured effect of the compound on a cell line is calculated according to one or the other of the following two expressions: If (Mean ODtest−Mean ODzero)≧0. then PG=100×(Mean ODtest−Mean ODzero)/(Mean ODctrl−Mean ODzero) If (Mean ODtest−Mean ODzero)<0. then PG=100×(Mean ODtest−Mean ODzero)/(Mean ODzero where: • Mean ODzero=the average of optical density measurements of SRB-derived color just before exposure of cells to the test compounds; • Mean ODtest=the average of optical density measurements of SRB-derived color after exposure of cells to the test compound for a designated period of time; and • Mean ODctrl=the average of optical density measurements of SRB-derived color after with no exposure of cells to the test compound for a designated period of time
(§4) The first two columns describe the subpanel (e.g., leukemia) and cell line (e.g., CCRF-CEM) involved. The next two columns list the Mean ODzero and Mean ODctrl; the next five columns list the Mean ODtest for each of five different concentrations. Each concentration is expressed as the log10 (molar or μg/ml). The next five columns list the calculated PGs for each concentration. The response parameters GI50, TGI and LC50 are interpolated values representing the concentrations at which the PG is +50, 0, and −50, respectively. Sometimes these response parameters cannot be obtained by interpolation. If, for instance, all of the PGs in a given row exceed +50, then none of the three parameters can be obtained by interpolation. In such a case, the value given for each response parameter is the highest concentration tested and is preceded by a “>” sign. This practice is extended similarly to the other possible situations where a response parameter cannot be obtained by interpolation.
(§5) In the first set, the cells from 56 different cancer cell lines were exposed to five concentrations of arsenic trioxide continuously for two days prior to performing the SRB assay. In the second set, the cells from 50 different cell lines (a subset of the first 56 cell lines, plus the renal cancer cell line 786-0) were exposed continuously for six days prior to the SRB assay.

HOP-92 = settings: HOP-92, 6 days
Procedure: as §1, §2, §3, §4, §5

EKVX = test system: EKVX
Procedure: as §1, §2, §3, §4, §5

NCI-H522 = settings: NCI-H522, 6 days
Procedure: as §1, §2, §3, §4, §5

NCI-H460 = settings: NCI-H460, 6 days
Procedure: as §1, §2, §3, §4, §5

NCI-H322M = test system: NCI-H322M
Procedure: as §1, §2, §3, §4, §5

NCI-H226 = settings: NCI-H226, 6 days
Procedure: as §1, §2, §3, §4, §5

NCI-H23 = settings: NCI-H23, 6 days
Procedure: as §1, §2, §3, §4, §5

[1] = read-out: LC50 (the source's name)

Substance: arsenic trioxide
- Mean Optical Densities (HOP-62; Log 10 Concentration −4.9): 0.014
- Percent Growth (HOP-62; Log 10 Concentration −4.9): −77%
- Mean Optical Densities (HOP-62; Log 10 Concentration −5.9): 0.451
- Percent Growth (HOP-62; Log 10 Concentration −5.9): 40%
- Mean Optical Densities (HOP-62; Log 10 Concentration −6.9): 1.019
- Percent Growth (HOP-62; Log 10 Concentration −6.9): 99%
- Mean Optical Densities (HOP-62; Log 10 Concentration −7.9): 0.997
- Percent Growth (HOP-62; Log 10 Concentration −7.9): 97%
- Mean Optical Densities (HOP-62; Log 10 Concentration −8.9): 1.076
- Percent Growth (HOP-62; Log 10 Concentration −8.9): 105%
- Mean Optical Densities (HOP-92; Log 10 Concentration −4.9): 0.079
- Percent Growth (HOP-92; Log 10 Concentration −4.9): −31%
- Mean Optical Densities (HOP-92; Log 10 Concentration −5.9): 1.229
- Percent Growth (HOP-92; Log 10 Concentration −5.9): 95%
- Mean Optical Densities (HOP-92; Log 10 Concentration −6.9): 1.319
- Percent Growth (HOP-92; Log 10 Concentration −6.9): 102%
- Mean Optical Densities (HOP-92; Log 10 Concentration −7.9): 1.834
- Percent Growth (HOP-92; Log 10 Concentration −7.9): 146%
- Mean Optical Densities (HOP-92; Log 10 Concentration −8.9): 1.455
- Percent Growth (HOP-92; Log 10 Concentration −8.9): 114%
- CC50 (HOP-92; [1]): > 12.6 µM
- TGI (EKVX): 4.22E−06
- Mean Optical Densities (EKVX; Log 10 Concentration −4.9): 0.014
- Percent Growth (EKVX; Log 10 Concentration −4.9): −53%
- Mean Optical Densities (EKVX; Log 10 Concentration −5.9): 0.414
- Percent Growth (EKVX; Log 10 Concentration −5.9): 59%
- Mean Optical Densities (EKVX; Log 10 Concentration −6.9): 0.628
- Percent Growth (EKVX; Log 10 Concentration −6.9): 92%
- Mean Optical Densities (EKVX; Log 10 Concentration −7.9): 0.601
- Percent Growth (EKVX; Log 10 Concentration −7.9): 88%
- Mean Optical Densities (EKVX; Log 10 Concentration −8.9): 0.573
- Percent Growth (EKVX; Log 10 Concentration −8.9): 83%
- Mean Optical Densities (NCI-H522; Log 10 Concentration −4.9): 0.028
- Percent Growth (NCI-H522; Log 10 Concentration −4.9): −84%
- Mean Optical Densities (NCI-H522; Log 10 Concentration −5.9): 0.128
- Percent Growth (NCI-H522; Log 10 Concentration −5.9): −27%
- Mean Optical Densities (NCI-H522; Log 10 Concentration −6.9): 1.191
- Percent Growth (NCI-H522; Log 10 Concentration −6.9): 97%
- Mean Optical Densities (NCI-H522; Log 10 Concentration −7.9): 0.535
- Percent Growth (NCI-H522; Log 10 Concentration −7.9): 34%
- Mean Optical Densities (NCI-H522; Log 10 Concentration −8.9): 1.269
- Percent Growth (NCI-H522; Log 10 Concentration −8.9): 104%
- Mean Optical Densities (NCI-H460; Log 10 Concentration −4.9): 0.062
- Percent Growth (NCI-H460; Log 10 Concentration −4.9): 1%
- Mean Optical Densities (NCI-H460; Log 10 Concentration −5.9): 2.535
- Percent Growth (NCI-H460; Log 10 Concentration −5.9): 89%
- Mean Optical Densities (NCI-H460; Log 10 Concentration −6.9): 2.792
- Percent Growth (NCI-H460; Log 10 Concentration −6.9): 98%
- Mean Optical Densities (NCI-H460; Log 10 Concentration −7.9): 2.806
- Percent Growth (NCI-H460; Log 10 Concentration −7.9): 99%
- Mean Optical Densities (NCI-H460; Log 10 Concentration −8.9): 2.797
- Percent Growth (NCI-H460; Log 10 Concentration −8.9): 99%
- CC50 (NCI-H460; [1]): > 12.6 µM
- Mean Optical Densities (NCI-H322M; Log 10 Concentration −4.9): 0.054
- Percent Growth (NCI-H322M; Log 10 Concentration −4.9): 3%
- Mean Optical Densities (NCI-H322M; Log 10 Concentration −5.9): 0.552
- Percent Growth (NCI-H322M; Log 10 Concentration −5.9): 77%
- Mean Optical Densities (NCI-H322M; Log 10 Concentration −6.9): 0.674
- Percent Growth (NCI-H322M; Log 10 Concentration −6.9): 96%
- Mean Optical Densities (NCI-H322M; Log 10 Concentration −7.9): 0.620
- Percent Growth (NCI-H322M; Log 10 Concentration −7.9): 88%
- Mean Optical Densities (NCI-H322M; Log 10 Concentration −8.9): 0.680
- Percent Growth (NCI-H322M; Log 10 Concentration −8.9): 97%
- CC50 (NCI-H322M; [1]): > 12.6 µM
- Mean Optical Densities (NCI-H226; Log 10 Concentration −4.9): 0.164
- Percent Growth (NCI-H226; Log 10 Concentration −4.9): 17%
- Mean Optical Densities (NCI-H226; Log 10 Concentration −5.9): 0.348
- Percent Growth (NCI-H226; Log 10 Concentration −5.9): 63%
- Mean Optical Densities (NCI-H226; Log 10 Concentration −6.9): 0.489
- Percent Growth (NCI-H226; Log 10 Concentration −6.9): 98%
- Mean Optical Densities (NCI-H226; Log 10 Concentration −7.9): 0.458
- Percent Growth (NCI-H226; Log 10 Concentration −7.9): 90%
- Mean Optical Densities (NCI-H226; Log 10 Concentration −8.9): 0.504
- Percent Growth (NCI-H226; Log 10 Concentration −8.9): 101%
- CC50 (NCI-H226; [1]): > 12.6 µM
- Mean Optical Densities (NCI-H23; Log 10 Concentration −4.9): 0.086
- Percent Growth (NCI-H23; Log 10 Concentration −4.9): 1%
- Mean Optical Densities (NCI-H23; Log 10 Concentration −5.9): 1.303
- Percent Growth (NCI-H23; Log 10 Concentration −5.9): 79%
- Mean Optical Densities (NCI-H23; Log 10 Concentration −6.9): 1.872
- Percent Growth (NCI-H23; Log 10 Concentration −6.9): 116%
- Mean Optical Densities (NCI-H23; Log 10 Concentration −7.9): 1.814
- Percent Growth (NCI-H23; Log 10 Concentration −7.9): 112%
- Mean Optical Densities (NCI-H23; Log 10 Concentration −8.9): 1.818
- Percent Growth (NCI-H23; Log 10 Concentration −8.9): 113%
- CC50 (NCI-H23; [1]): > 12.6 µM
